The text below walks through data of US20250002954A1, “Novel Compound, Use Thereof, and Method for Producing Same, and Compound-Containing Composition, Method for Producing 4-Trehalosamine, and Microorganism” (Microbial Chemistry Research Foundation, priority 2021, published 2025).

Data set [1] can be described thus: Dynamics upon oral administration to mice (blood level, urinary and fecal excretion). In kind it is in vivo, ICR mice. The conditions noted are these: single oral dose 0.5 mg per g of body weight. Here is the method:
4-trehalosamine or trehalose dissolved in saline at 0.5 mg/10 μL per g of body weight was orally administered in a single dose to ICR mice (9-week to 10-week old, female, n=5) that had been fasted overnight. The five mice on which the same treatment had been performed were placed in the same cage.
Urine and feces were regularly collected together. The collected feces were suspended in water at 200 mg/mL and centrifuged at 21,300×g for 5 minutes. The centrifuged supernatant of feces suspension and the collected urine were each diluted with methanol to 1/1,000, on which LC-MS analysis was performed under similar conditions to test example 1 and cumulative excretion of 4-trehalosamine (4TA) or trehalose (TRH) over time was calculated.
Blood was regularly collected from tail vein in an amount of around 10 μL to 20 μL, and 200 μL of methanol was added to it after measurement. After agitation on a vortex, it was centrifuged at 21,000×g for 5 minutes. The supernatant was diluted with methanol to ⅕ and LC-MS analysis was performed on it under similar conditions to test example 1. The results for 4-trehalosamine are shown in FIG. 19G and the results for trehalose are shown in FIG. 19H for each individual (n=5).

Data set [2] in a line: Dynamic viscoelasticity measurement of corn starch gel. The conditions noted are these: corn starch gel with 10% aqueous solution, 4° C., after 96 hours. In kind it is physicochemical. On the procedure: In 20-mL glass vials, corn starch (manufactured by FUJIFILM Wako Pure Chemical Corporation) was mixed with each of the 10% aqueous solution of 4-trehalosamine (4TA), 10% aqueous solution of trehalose (TRH), 10% aqueous solution of sucrose (SCR), and 10% aqueous solution of glycerol (GOL), which are the test samples, or water as control to a final concentration of 15% (w/w) and uniformly suspended, and the suspensions were autoclaved at 121° C. for 20 minutes to gel them. For each of them, 0-hour sample and 96-hour sample were prepared.
After cooling them to room temperature, dynamic viscoelasticity measurement was performed on the 0-hour sample within 4 hours. The 96-hour sample was left to stand at 4° C. for 96 hours and then subjected to dynamic viscoelasticity measurement.
The dynamic viscoelasticity measurement was performed using a MCR300 rheometer (manufactured by Physica, Stuttgart, Germany) under the condition of the gap of a 25-mm parallel plate measurement tool being 1.0 mm. Under the conditions of a fixed frequency of 1.0 Hz, a strain amplitude of 1%, and 25° C., a storage modulus (G′) and a loss modulus (G″) were measured and a loss tangent (tan δ=G″/G′) was calculated. In FIG. 15K, the value of tan δ is indicated on the vertical axis (n=5, mean±S.D.).

The nature of data set [3]: Starch aging inhibiting effect, enzyme assay 5 (wheat flour gel). The conditions noted are these: final concentration 10% or 15% (w/w), 48 and 96 hours. On the procedure:
Starch aging inhibiting effect was determined in a similar manner to the <Enzyme assay 3> except that potato starch was changed to wheat flour (organic wheat flour, from Kanazawa Daichi) in the “—Preparation of measurement samples—” of the <Enzyme assay 3>. The results for the 10% (w/w) final concentration of the different sugars are shown in FIG. 15I, and the results for the 15% (w/w) final concentration of the different sugars are shown in FIG. 15J.

A short description of data set [4]: Starch aging inhibiting effect, enzyme assay 4 (rice flour gel). The conditions noted are these: final concentration 10% or 15% (w/w), 48 and 96 hours. Here is the method: Starch aging inhibiting effect was determined in a similar manner to the <Enzyme assay 3> except that potato starch was changed to rice flour (manufactured by OSAWA JAPAN) in the “—Preparation of measurement samples—” of the <Enzyme assay 3>. The results for the 10% (w/w) final concentration of the different sugars are shown in FIG. 15G, and the results for the 15% (w/w) final concentration of the different sugars are shown in FIG. 15H.

Take `N[C@H]1[C@H](O)[C@@H](O)[C@@H](O[C@H]2O[C@H](CO)[C@@H](O)[C@H](O)[C@H]2O)O[C@@H]1CO` [4-trehalosamine]: in data set [1] (fasted), the “absorption and blood circulation after oral administration” value is “a portion of orally administered 4-trehalosamine is absorbed and circulates in blood for a certain amount of time”. The excretion result in data set [1] (urine and feces) was “excreted through feces and urine in the original form, without being degraded or modified”. Further, the “change in loss tangent (tan δ) value” in data set [2] is “little change or a slight increase in the loss tangent value”. Further, the “rate of degradation by β-amylase (starch aging inhibiting effect)” value is “significantly high rate of degradation by β-amylase at and after 48 hours compared to the other gels” in data set [3]; “significantly high rate of degradation by β-amylase at and after 48 hours compared to the other gels” in data set [4].
